Reference: article PMC7226106, “Population Pharmacokinetics/Pharmacodynamics of Dabrafenib Plus Trametinib in Patients with BRAF-Mutated Metastatic Melanoma” (Cancers, 2020)
Entries after “also recorded” stand apart in the source; their conditions may differ.

Legend:
[1] = Model-estimated systemic exposure (AUC) in BRAF^V600-mutated MM patients treated with CombiDT
Description: (§1) Pharmacokinetic/pharmacodynamic analysis was conducted in BRAF^V600-mutated MM patients concomitantly treated with CombiDT. Regarding safety, the onset of DLT was considered as the clinical endpoint. A DLT was defined as any toxicity leading to dose reduction or temporary or permanent discontinuation of treatment. Regarding survival, the primary end point was progression free survival (PFS), the time from DAB and TRA treatment initiation to documented progression event (either clinical or radiological progression) or death from any cause. The secondary end-point was overall survival (OS), defined as the time from DAB and TRA treatment initiation to death from any cause. Radiographic evidence of progression was defined according to modified Response Evaluation Criteria in Solid Tumor (RECIST) v1.1 [41].
(§2) Systemic exposures to DAB, OHD, and TRA (AUCDAB, AUCOHD, and AUCTRA, respectively) were calculated with classic equations, composite DAB and OHD AUC (AUCDAB+OHD) as previously explained and AUCOHD/DAB as the ratio of AUCOHD over AUCDAB. Univariate Fisher and Wilcoxon models were performed to identify which parameters could contribute to the onset of DLT. The following variables were tested: sex, age at treatment initiation, BMI, Eastern Cooperative Oncology Group Performance Status (ECOG PS: grade 0-1 vs ≥2), lactate dehydrogenase (LDH) level (<1.5N vs. ≥1.5N), AUCDAB, AUDOHD, AUCDAB+OHD, and AUCTRA.
(§3) Multivariate Cox models according to a stepwise procedure were tested including all variables which were significant at 5% level in the univariate analyses. All the pharmacokinetic/pharmacodynamic analyses were performed using R program v3.6.1 with RStudio v1.1.383 (http://www.r-project.org).

[2] = Population pharmacokinetic model of dabrafenib/hydroxy-dabrafenib (NONMEM) from plasma concentrations; assay type: in vivo, human (patients)
Text: Seventy-three outpatients treated with DAB were enrolled from July 2015 to June 2017 in this observational multicentric study including three hospitals of the Assistance Publique—Hôpitaux de Paris (Cochin, Henri Mondor, and Avicenne). To be eligible, patients needed to meet the following criteria: a minimal age of 18 years, metastatic BRAF^V600-mutated solid tumors, treatment with DAB or CombiDT with at least one available DAB concentration measurement.
DAB, dabrafenib-d9 (internal standard, IS), and TRA were purchased from LGC Standards (Molsheim, France). A custom synthesis was developed by Shanghai Medicilon (Shanghai, China) for OHD. The plasma concentrations were assayed using a validated high-performance liquid chromatography-tandem mass spectrometry (HPLC-MS/MS) (ATSQ Quantum Ultra®mass spectrometer, ThermoFisher, Les Ulis, France). Chromatographic separation was performed on Accucore® C18 (2.1 × 50 mm; 2.6 µm) analytical column (ThermoFisher Scientific, Les Ulis, France) associated with a guard column packed with the same bonded phase. Two hundred microliters (µL) aliquot of plasma (calibration standard, internal quality control or patient sample) was mixed with 20 µL of IS solution. Then 600 µL acetonitrile with 1% (v/v) formic acid was added. Samples were mixed and centrifuged, and the supernatant was evaporated and recovered with 200 µL of mobile phase: water/methanol (70:30%, v/v) with formic acid (0.1% v/v). Ten microliters of this mixture were injected into the HPLC-MS/MS system. The calibration standards ranged from 10 to 2000 ng/mL for DAB and OHD and from 5 to 50 ng/mL for TRA.
Blood samples were collected in heparinized tubes during the treatment course, and the exact sample time was recorded. Plasma was separated by centrifugation (3000 rpm, 5 min), and stored at −20 °C until analysis.
The non-linear mixed effects modeling program NONMEM v7.4.1 [34] with the Perl-Speaks NONMEM (PsN) Toolkit v4.8.0 [35] was used to build DAB/OHD and TRA models. Pirana v2.9.2 was used to assist in model development. […] Molar units were used for DAB/OHD analyses. Plasma samples with concentrations below the lower limit of quantification of the assay, non-reliable time information about blood sampling, or without dose information were excluded from the analysis.
A stepwise strategy was used to identify the base models that best fitted DAB/OHD and TRA pharmacokinetic data. Different structural models such as one or two compartments, with linear absorption with or without lag time, were compared. DAB and OHD were modeled simultaneously testing multi-compartment models for both compounds. We hypothesized that DAB was cleared by complete oxidation to OHD, since it is not eliminated as unchanged molecule in urine and accounts for less than 22% in feces. Moreover, the first-order absorption rate constant (ka) of DAB was fixed to 1.8 h^−1 according to a previously published value to allow an adequate estimate of all pharmacokinetic parameters. Since DAB and TRA are administered orally, the pharmacokinetic parameters represent apparent values. Exponential errors following a log-normal distribution were assumed for the description of IIV of all the pharmacokinetic parameters. Inter-occasion variability (IOV) was tested in both DAB/OHD and TRA models to assess differences in individual parameters across study occasions. Additive, proportional, and mixed error models were compared to depict the residual unexplained variability (RUV) for both drugs and metabolite. The correlation between DAB and OHD data was tested using the L2 item in NONMEM. […]

[3] = human, in vivo
Description: as §1, §2, §3

[4] = design: method as in earlier work; conditions: preclinical data; cited from earlier work
mutant BRAF = tested on: mutant BRAF; design: method as in PMID 24958809; conditions: in vitro study; cited from earlier work
[5] = tested on: BRAF^V600-mutated metastatic melanoma; assay: Survival (PFS, OS) and Cox exposure-survival analysis under CombiDT; assay type: in vivo, human (patients)
Description: as §1
Multivariate Cox models according to a stepwise procedure were tested including all variables which were significant at 5% level in the univariate analyses.

[6] = cited from earlier work
[7] = bootstrap median (n = 500 samples)
[8] = multivariate Cox model with ECOG PS ≥2

Compound: CC(C)(CO)c1nc(-c2cccc(NS(=O)(=O)c3c(F)cccc3F)c2F)c(-c2ccnc(N)n2)s1 [OHD, hydroxy-dabrafenib]
- median AUCM3 (mean AUC during the first three months of treatment) ([1]; 30 MM patients of the exposure-survival analysis): 6082 ng·h/mL
- AUCM3,OHD/AUCM3,DAB ratio ([1]; patients experiencing cerebral progression): 0.9 (0.5–1.3)
- AUC, median (range) ([1]; patients with DAB-related DLT (n = 12), last AUC before onset of DLT): 7509.5 (4918–10300) ng∙h/mL
- AUCM3,OHD/AUCM3,DAB ratio ([1]; patients with extra-cerebral progression): 0.8 (0.6–0.8)
- AUC, median (range) ([1]; patients without DAB-related DLT (n = 40), average AUC over treatment course): 5812 (2459–10300) ng∙h/mL
- difference in pharmacokinetics ([2]; DAB monotherapy vs. combiDT (ΔOFV = −2.9, p > 0.05)): did not differ
- CLm/F, apparent clearance of OHD ([2]; base DAB/OHD model): 22.8 L/h
- IIV CLm/F, interindividual variability (coefficient of variation) ([2]; base DAB/OHD model): 26.8%
- IIV V3/F, interindividual variability (coefficient of variation) ([2]; base DAB/OHD model): 84.0%
- RUV of OHD, residual unexplained variability (proportional) ([2]; base DAB/OHD model): 53.1%
- CLm/F, apparent clearance of OHD [2, 7]: 22.9 L/h
- IIV CLm/F, interindividual variability (coefficient of variation) [2, 7]: 21.8%
- IIV V3/F, interindividual variability (coefficient of variation) [2, 7]: 82.0%
- RUV of OHD, residual unexplained variability (proportional) [2, 7]: 52.7%
- θage/(CLm/F), Age effect on CLm/F [2, 7]: −0.543
- difference in pharmacokinetics ([2]; concomitant proton-pump inhibitor (PPI) intake (ΔOFV = −3.5, p > 0.05)): did not differ
- CLm/F, apparent clearance of OHD ([2]; final DAB/OHD model): 23.2 L/h
- IIV CLm/F, interindividual variability (coefficient of variation) ([2]; final DAB/OHD model): 24.0%
- IIV V3/F, interindividual variability (coefficient of variation) ([2]; final DAB/OHD model): 47.5%
- RUV of OHD, residual unexplained variability (proportional) ([2]; final DAB/OHD model): 53.1%
- θage/(CLm/F), Age effect on CLm/F ([2]; final DAB/OHD model, median age 61.2 years): −0.589
- base model variance of clearance explained by covariates (sex, age) ([2]; in vivo): 20%
- decrease in CLm/F ([2]; same age variation (20 to 90 years)): 51%
- median AUCOHD/AUCDAB ratio [3]: 0.80 (0.50–1.32)
- passage of the intact blood brain barrier [4]: lack of OHD diffusion into the brain
- potency as an inhibitor of mutant BRAF compared to DAB (mutant BRAF): two-fold higher pharmacological potency; also recorded: twofold higher potency
- Risk of Death, HR (CI95%) for AUCM3,OHD [5, 8]: 1.61 (1.07–2.45)
- Risk of Death, HR (CI95%) for AUCM3,OHD/DAB ratio ≥ 1 [5, 8]: 10.61 (2.34–48.15)
- Risk of Progression, HR (CI95%) for AUCM3,OHD ([5]; multivariate Cox model with cerebral metastases): 1.29 (0.99–1.68)
- Risk of Progression, HR (CI95%) for AUCM3,OHD ([5]; multivariate Cox model with number of metastasis site ≥3): 1.27 (0.97–1.68)
- Risk of Death, HR (CI95%) for AUCM3,OHD/AUCM3,DAB ratio ≥ 1 vs. < 1 ([5]; univariate Cox model): 4.11 (1.18–14.29)
- Risk of Progression, HR (CI95%) for AUCM3,OHD/AUCM3,DAB ratio ≥ 1 vs. < 1 ([5]; univariate Cox model): 1.66 (0.62–4.46)
- Risk of Death, HR (CI95%) for AUCM3 ([5]; univariate Cox model, n = 30): 1.64 (1.09–2.48)
- Risk of Progression, HR (CI95%) for AUCM3 ([5]; univariate Cox model, n = 30): 1.37 (1.02–1.83)
- mean OHD-to-DAB exposure ratio in plasma [6]: 0.8
